# According to ChEMBL document CHEMBL5154656, “High-Throughput Screening Platform in Postnatal Heart Cells and Chemical Probe Toolbox to Assess Cardiomyocyte Proliferation” (J Med Chem, 2022):
# The source made the active and inactive calls. The rule behind the calls is not given here.
# Tests used:
# [1] = Cytotoxicity against mouse Cardiomyocytes assessed as toxicity at 0.33 to 10 uM; assay type: cell-based; settings: cardiac muscle cell, dose 0.33-10 µM
# [2] = system: Cardiac muscle cell; experiment: Cytotoxicity against rat Cardiomyocytes assessed as toxicity at 0.33 to 10 uM; assay type: cell-based; settings: dose 0.33-10 µM
# [3] = system: Cardiac muscle cell; experiment: Induction of cell proliferation in postnatal day 6 rat cardiac cells assessed as increasing in number of cardiomyocytes; assay type: functional, cell-based; settings: dose 0.1-10 µM, DDE = dose-dependent effect
# [4] = system: Cardiac muscle cell; experiment: Induction of cell proliferation in postnatal day 5 rat cardiac cells assessed as increase in nuclear to cytoplasmic YAP ratio for 4 to 24 hrs by immunostaining analysis; assay type: functional, cell-based; settings: time 4-24 hrs
# [5] = system: Cardiac muscle cell; experiment: Induction of cell proliferation in postnatal day 5 rat cardiac cells assessed as increase in total CM nuclei number; assay type: functional, cell-based
# [6] = system: Cardiac Muscle Cell; experiment: Induction of cell proliferation in postnatal day 1 transgenic mouse cardiac cells assessed as increase in total CM nuclei number; assay type: functional, cell-based
# [7] = system: Cardiac Muscle Cell; experiment: Induction of cell proliferation in postnatal day 6 CD1 mouse heart assessed as increase in number of cardiomyocyte by measuring mCherry+ cardiomyocyte nuclei at 0.001 to 1 uM; assay type: functional, cell-based; settings: dose 0.001-1 µM, DDE = dose-dependent effect
# [8] = system: Cardiac Muscle Cell; experiment: Induction of cell proliferation in postnatal day 1 transgenic mouse cardiac cells assessed as increase in percentage of eGFP-anillin-positive cardiomyocytes; assay type: functional, cell-based
# [9] = system: Cardiac Muscle Cell; experiment: Induction of cell proliferation in postnatal day 6 mouse cardiac cells assessed as increase in total CM nuclei number; assay type: functional, cell-based
# [10] = system: Cardiac Muscle Cell; experiment: Induction of cell proliferation in postnatal day 1 transgenic mouse cardiac cells assessed as increase in bi-nucleation; assay type: functional, cell-based
# [11] = system: Cardiac Muscle Cell; experiment: Induction of cell proliferation in postnatal day 6 transgenic mouse cardiac cells assessed as increase in percentage of eGFP-anillin-positive cardiomyocytes; assay type: functional, cell-based
# [12] = system: Cardiac muscle cell; experiment: Pro-proliferative activity in Wistar rat cardiac cells from P6 late postnatal developmental time points assessed as effect on cell number by measuring alphaAct/Ki67 cardiomyocyte nuclei at 0.33 to 10 uM by DAPI analysis; assay type: functional, cell-based; settings: dose 0.33-10 µM
# [13] = system: Cardiac muscle cell; experiment: Pro-proliferative activity in Wistar rat cardiac cells from P1 early postnatal developmental time points assessed as effect on cell number by measuring alphaAct/Ki67 cardiomyocyte nuclei at 0.33 to 10 uM by DAPI analysis; assay type: functional, cell-based; settings: dose 0.33-10 µM
# [14] = Cytotoxicity against mouse Cardiomyocytes assessed as toxicity at > 1 uM; assay type: cell-based; settings: cardiac muscle cell
# [15] = system: Cardiac muscle cell; experiment: Cytotoxicity against rat Cardiomyocytes assessed as toxicity at > 1 uM; assay type: cell-based
# [16] = system: Cardiac muscle cell; experiment: Induction of cell proliferation in postnatal day 1 Wistar rat cardiac cells assessed as enhancement cardiomyocyte numbers by measuring alphaAct+; assay type: functional, cell-based
# [17] = system: Cardiac Muscle Cell; experiment: Induction of cell proliferation in postnatal day 1 CD1 mouse cardiac cells assessed as enhancement in cardiomyocyte numbers by measuring alphaAct+; assay type: functional, cell-based
# [18] = system: Cardiac Muscle Cell; experiment: Induction of cell proliferation in postnatal day 6 CD1 mouse cardiac cells assessed as enhancement in cardiomyocyte numbers by measuring alphaAct+; assay type: functional, cell-based
# [19] = system: Cardiac Muscle Cell; experiment: Induction of cell proliferation in postnatal day 6 mouse cardiac cells assessed as stimulation in pro-prolierative responses; assay type: functional, cell-based; settings: dose 0.33-10 µM, DDE = dose-dependent effect
# [20] = system: Cardiac Muscle Cell; experiment: Induction of cell proliferation in postnatal day 1 mouse cardiac cells assessed as increase in CM numbers at 0.33 to 5 uM; assay type: functional, cell-based; settings: dose 0.33-5 µM
# [21] = system: Cardiac muscle cell; experiment: Induction of cell proliferation in postnatal day 6 rat cardiac cells assessed as increase in CM numbers at 0.33 to 5 uM; assay type: functional, cell-based; settings: dose 0.33-5 µM
# [22] = system: Cardiac Muscle Cell; experiment: Induction of cell proliferation in postnatal day 6 mouse cardiac cells assessed as increase in CM numbers at 0.33 to 5 uM; assay type: functional, cell-based; settings: dose 0.33-5 µM
# [23] = system: Cardiac muscle cell; experiment: Induction of cell proliferation in postnatal day 6 rat cardiac cells assessed as stimulation in pro-prolierative responses; assay type: functional, cell-based; settings: dose 0.1-10 µM, DDE = dose-dependent effect
# [24] = system: Cardiac muscle cell; experiment: Induction of cell proliferation in postnatal day 6 Wistar rat cardiac cells assessed as enhancement cardiomyocyte numbers by measuring alphaAct+; assay type: functional, cell-based
# [25] = system: Cardiac muscle cell; experiment: Induction of cell proliferation in postnatal day 1 Wistar rat cardiac cells assessed as increase in cardiomyocyte numbers by measuring alphaAct+ at 0.33 to 5 uM; assay type: functional, cell-based; settings: dose 0.33-5 µM
# [26] = target: Mitogen-activated protein kinase 11 (Homo sapiens) (UniProt Q15759); experiment: Inhibition of P38betaMAPK (unknown origin) relative to control; settings: concentration not given here
# Chain of Mitogen-activated protein kinase 11 (Homo sapiens) (Q15759 whole entry): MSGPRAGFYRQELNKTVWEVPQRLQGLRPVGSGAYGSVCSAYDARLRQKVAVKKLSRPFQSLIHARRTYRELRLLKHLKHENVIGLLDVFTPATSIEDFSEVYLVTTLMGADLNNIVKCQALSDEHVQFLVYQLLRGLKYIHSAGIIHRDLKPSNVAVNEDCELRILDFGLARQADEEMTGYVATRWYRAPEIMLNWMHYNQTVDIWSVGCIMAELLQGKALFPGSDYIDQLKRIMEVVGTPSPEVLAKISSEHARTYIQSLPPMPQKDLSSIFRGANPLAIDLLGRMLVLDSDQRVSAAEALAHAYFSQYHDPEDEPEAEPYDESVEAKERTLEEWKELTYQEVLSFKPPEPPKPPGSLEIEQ
# [27] = target: Mitogen-activated protein kinase 14 (Homo sapiens) (UniProt Q16539); experiment: Inhibition of P38alphaMAPK (unknown origin) relative to control; settings: concentration not given here
# Chain of Mitogen-activated protein kinase 14 (Homo sapiens) (Q16539 whole entry): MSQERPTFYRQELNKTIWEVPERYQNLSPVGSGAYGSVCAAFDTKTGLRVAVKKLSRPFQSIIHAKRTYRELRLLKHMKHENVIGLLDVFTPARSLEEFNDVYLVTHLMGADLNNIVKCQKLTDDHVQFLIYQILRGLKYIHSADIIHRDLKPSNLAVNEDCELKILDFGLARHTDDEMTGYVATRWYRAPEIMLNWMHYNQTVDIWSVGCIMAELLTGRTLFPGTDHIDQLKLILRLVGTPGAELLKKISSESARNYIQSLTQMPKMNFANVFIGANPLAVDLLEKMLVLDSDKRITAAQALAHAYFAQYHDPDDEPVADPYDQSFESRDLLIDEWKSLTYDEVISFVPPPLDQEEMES
compound,measurement,setting,value
Cc1c[nH]c(-c2cnc(NCCNc3ccc(C#N)cn3)nc2-c2ccc(Cl)cc2Cl)n1 [LADUVIGLUSIB],Activity,[1],Non-Toxic
same,Activity,[2],Non-Toxic
Cc1cnc(-c2cnc(NCCNc3ccc(C#N)cn3)nc2-c2ccc(Cl)cc2Cl)[nH]1,Activity,[3],Dde
same,Activity,[4],Active
CN1CCN(Cc2ccc(NC(=O)Nc3ccc(Oc4cc(NC(=O)C5CC5)ncn4)cc3)cc2C(F)(F)F)CC1,Activity,[5],Active
same,Activity,[6],Active
same,Activity,[7],Dde
same,Activity,[8],Active
same,Activity,[9],Active
same,Activity,[10],Active
same,Activity,[11],Active
O=C(OCCN1CCOCC1)c1ccc2c(c1)C(=O)c1ccc(Nc3ccc(F)cc3F)cc1CC2,Activity,[12],Active
same,Activity,[13],Active
CCn1c(=O)[nH]c2ccccc21,Activity,[14],Toxic
same,Activity,[15],Toxic
O=C(NCC(O)CO)c1ccc2c(c1)C(=O)c1ccc(Nc3ccc(F)cc3F)cc1CC2 (stereo not drawn),Activity,[12],Active
same,Activity,[13],Active
CN1CCN(Cc2ccc(NC(=O)Cc3ccc(Oc4cc(NC(=O)C5CC5)ncn4)cc3)cc2C(F)(F)F)CC1,Activity,[1],Non-Toxic
same,Activity,[5],Active
same,Activity,[4],Active
same,Activity,[6],Active
same,Activity,[7],Dde
same,Activity,[8],Active
same,Activity,[2],Non-Toxic
same,Activity,[9],Active
same,Activity,[10],Active
same,Activity,[11],Active
COc1nccc(-c2c(-c3ccc(F)cc3)ncn2[C@H]2CC[C@H](O)CC2)n1,Activity,[16],Active
same,Activity,[17],Active
same,Activity,[18],Active
same,Activity,[19],Dde
same,Activity,[20],Active
same,Activity,[21],Active
same,Activity,[1],Non-Toxic
same,Activity,[22],Active
same,Activity,[23],Dde
same,Activity,[24],Active
same,Activity,[25],Active
same,Activity,[2],Non-Toxic
O=C1c2ccc(Nc3ccc(F)cc3F)cc2CCc2ccc(OC[C@H](O)CO)cc21,Activity,[12],Active
same,inhibition,[26],99.8%
same,inhibition,[27],99.8%
same,Activity,[13],Active
